Source: the NIST ThermoML archive (doi:10.1016/j.jct.2015.08.013)
± gives the expanded uncertainty stated by the source.

Legend:
[1] = 100 kPa, Liquid; for viscosity: Capillary tube (Ostwald / Ubbelohde) method; for mass density: Vibrating tube method
[2] = xn = mol fraction of the nth substance listed; conditions: 100 kPa, Liquid, x1 = 1; for mass density: Vibrating tube method; for viscosity: Capillary tube (Ostwald / Ubbelohde) method

Structure (SMILES) | viscosity ([1]; 298.15 K) | viscosity ([1]; 303.15 K) | viscosity ([1]; 308.15 K) | viscosity ([1]; 313.15 K) | viscosity ([1]; 318.15 K) | viscosity ([1]; 323.15 K) | mass density ([2]; 293.15 K) | viscosity ([2]; 298.15 K) | mass density ([2]; 298.15 K) | viscosity ([2]; 303.15 K) | mass density ([2]; 303.15 K) | viscosity ([2]; 308.15 K) | mass density ([2]; 308.15 K) | viscosity ([2]; 313.15 K) | mass density ([2]; 313.15 K) | viscosity ([2]; 318.15 K) | mass density ([2]; 318.15 K) | viscosity ([2]; 323.15 K) | mass density ([2]; 323.15 K) | further results
CC1COC(=O)O1 (stereo not given) [4-methyl-1,3-dioxolan-2-one] | 2.52 ± 0.052 mPa·s | 2.27 ± 0.047 mPa·s | 2.08 ± 0.043 mPa·s | 1.91 ± 0.04 mPa·s | 1.75 ± 0.036 mPa·s | 1.62 ± 0.034 mPa·s | – | – | – | – | – | – | – | – | – | – | – | – | – | –
CN1CCCC1=O [N-methylpyrrolidone] | 1.677 ± 0.036 mPa·s | 1.536 ± 0.033 mPa·s | 1.429 ± 0.03 mPa·s | 1.338 ± 0.029 mPa·s | 1.248 ± 0.027 mPa·s | 1.178 ± 0.025 mPa·s | – | – | – | – | – | – | – | – | – | – | – | – | – | mass density ([1]; 293.15 K): 1032.66 ± 1.6 kg/m3; mass density ([1]; 298.15 K): 1028.17 ± 1.6 kg/m3; mass density ([1]; 303.15 K): 1023.6 ± 1.6 kg/m3; mass density ([1]; 308.15 K): 1019.49 ± 1.6 kg/m3; mass density ([1]; 313.15 K): 1014.74 ± 1.6 kg/m3; mass density ([1]; 318.15 K): 1010.2 ± 1.6 kg/m3; mass density ([1]; 323.15 K): 1005.89 ± 1.6 kg/m3
CN1CCCC1=O [N-methylpyrrolidone] + CC1COC(=O)O1 | – | – | – | – | – | – | 1032.66 ± 1.6 kg/m3 | 1.677 ± 0.036 mPa·s | 1028.17 ± 1.6 kg/m3 | 1.536 ± 0.033 mPa·s | 1023.6 ± 1.6 kg/m3 | 1.429 ± 0.03 mPa·s | 1019.49 ± 1.6 kg/m3 | 1.338 ± 0.029 mPa·s | 1014.74 ± 1.6 kg/m3 | 1.248 ± 0.027 mPa·s | 1010.2 ± 1.6 kg/m3 | 1.178 ± 0.025 mPa·s | 1005.89 ± 1.6 kg/m3 | –
CN1CCCC1=O [N-methylpyrrolidone] + O=C1CCCO1 | – | – | – | – | – | – | 1032.66 ± 1.6 kg/m3 | 1.677 ± 0.036 mPa·s | 1028.17 ± 1.6 kg/m3 | 1.536 ± 0.033 mPa·s | 1023.6 ± 1.6 kg/m3 | 1.429 ± 0.03 mPa·s | 1019.49 ± 1.6 kg/m3 | 1.338 ± 0.029 mPa·s | 1014.74 ± 1.6 kg/m3 | 1.248 ± 0.027 mPa·s | 1010.2 ± 1.6 kg/m3 | 1.178 ± 0.025 mPa·s | 1005.89 ± 1.6 kg/m3 | –
